Laboratory results reported in the supplement of paper PMC13380429.

How the values were obtained:
Details in all cases: 72 h
[1] = system: Caco-2; assay: relative viability EC50 (midpoint between 100% and the lowest measured viability); higher = less toxic
[2] = system: Vero E6; assay: as above
[3] = system: HepG2; assay: as above
[4] = system: Calu-3; assay: as above
[5] = system: U2OS; assay: as above
[6] = system: Caco-2; assay: drug sensitivity score (DSS) for viability; higher = more toxic; extreme values may be limits of the assay
[7] = system: Vero E6; assay: as above
[8] = system: HepG2; assay: as above
[9] = system: Calu-3; assay: as above
[10] = system: U2OS; assay: as above
[11] = system: Caco-2; assay: cell viability relative to DMSO; higher = less toxic
[12] = system: Vero E6; assay: as above
[13] = system: HepG2; assay: as above
[14] = system: Calu-3; assay: as above
[15] = system: U2OS; assay: as above

Compound	relative viability EC50 [1] [µM]	relative viability EC50 [2] [µM]	relative viability EC50 [3] [µM]	relative viability EC50 [4] [µM]	relative viability EC50 [5] [µM]	drug sensitivity score [6]	drug sensitivity score [7]	drug sensitivity score [8]	drug sensitivity score [9]	drug sensitivity score [10]	cell viability ([11]; 1 nM) [%]	cell viability ([11]; 10 nM) [%]	cell viability ([11]; 100 nM) [%]	cell viability ([11]; 1000 nM) [%]	cell viability ([11]; 10000 nM) [%]	cell viability ([12]; 1 nM) [%]	cell viability ([12]; 10 nM) [%]	cell viability ([12]; 100 nM) [%]	cell viability ([12]; 1000 nM) [%]	cell viability ([12]; 10000 nM) [%]	cell viability ([13]; 1 nM) [%]	cell viability ([13]; 10 nM) [%]	cell viability ([13]; 100 nM) [%]	cell viability ([13]; 1000 nM) [%]	cell viability ([13]; 10000 nM) [%]	cell viability ([14]; 1 nM) [%]	cell viability ([14]; 10 nM) [%]	cell viability ([14]; 100 nM) [%]	cell viability ([14]; 1000 nM) [%]	cell viability ([14]; 10000 nM) [%]	cell viability ([15]; 1 nM) [%]	cell viability ([15]; 10 nM) [%]	cell viability ([15]; 100 nM) [%]	cell viability ([15]; 1000 nM) [%]	cell viability ([15]; 10000 nM) [%]
O=S(=O)(O)NC1CCCCC1 [cyclamic-acid]	> 10	> 10	> 10	> 10	> 10	0	0	0	0	0	107	106	85.7	98.4	93.5	108	99.8	101	99.1	106	112	99.5	97.8	98.8	105	101	99.7	90	101	97.8	98.1	100	96.8	101	96.3
Nc1nc(N)nc(NC2CC2)n1 [cyromazine]	> 10	> 10	> 10	> 10	> 10	0	0	0	0	0	99.6	99.8	108	95.3	96.1	92.8	98.2	93	99.1	109	96.3	105	99.8	95	104	105	92.6	95.7	84.6	103	94.9	93.4	97.8	96.7	103
Cc1ccccc1N1CCN(CCc2nnc3n2CCCC3)CC1 [dapiprazole]	> 10	> 10	> 10	> 10	> 10	0	0	0	0	0	106	99.9	86.9	98	92.5	92.9	93.2	97.6	98.9	92.8	99.8	104	92.9	94.3	102	106	102	92.9	102	101	99.2	105	96.2	106	102
CCOC(=O)[C@H](CCc1ccccc1)N[C@@H](C)C(=O)N(CC(=O)O)C1Cc2ccccc2C1 [delapril]	> 10	> 10	> 10	> 10	> 10	0	0	0	0	0	106	103	98.2	111	95.4	107	102	111	107	99.7	105	102	98.3	96.7	98	98.6	101	92.3	90.6	106	100	93.1	103	98.6	98
Nc1ncnc2c1ncn2[C@@H]1O[C@H](COP(=O)(O)OP(=O)(O)OP(=O)(O)OP(=O)(O)OC[C@H]2O[C@@H](n3cnc4c(N)ncnc43)[C@H](O)[C@@H]2O)[C@@H](O)[C@H]1O [diadenosine-tetraphosphate]	> 10	> 10	> 10	> 10	> 10	0	0	0	0.1	0	99.4	97.8	99.3	102	107	99	102	96.5	102	97	94.6	101	114	102	104	106	104	94.9	89.6	92.4	94.5	98.1	97.7	97.5	107
CC(C)[C@@]1(NC(=O)[C@@H]2C[C@@H]3c4cccc5[nH]cc(c45)C[C@H]3N(C)C2)O[C@@]2(O)[C@@H]3CCCN3C(=O)[C@H](Cc3ccccc3)N2C1=O [dihydroergocristine]	> 10	> 10	> 10	> 10	> 10	0	0	0.1	0	0	105	100	89.3	102	91.7	102	100	102	99	99.5	103	95.1	95.8	100	86.4	92.6	97.5	99	93.3	94.9	96.3	100	99.2	98.2	96.4
CC(=O)Oc1cccc(C(=O)O)c1OC(C)=O [dipyrocetyl]	> 10	> 10	> 10	> 10	> 10	0	0	0	0	0	99.9	90.2	100	97	92	101	105	103	99.4	101	96	95.9	97.8	89.5	96.9	93.8	92.9	85.2	99.8	86.8	103	96.8	101	101	101
Cc1ccccc1NC(=N)Nc1ccccc1C [ditolylguanidine]	> 10	> 10	> 10	> 10	> 10	0.2	0	0	0	0	96.5	100	103	95.6	88.3	96.4	104	95.6	100	95.6	100	96.1	97.7	94.3	97.9	103	104	95.8	103	90.4	98.8	104	94.6	102	94.7
Cc1cc(Oc2ccc3nc(COc4ccc(CC5SC(=O)NC5=O)cc4)n(C)c3c2)cc(C)c1N (stereo not given) [efatutazone]	> 10	> 10	> 10	> 10	> 10	0	3.6	0	0	0	102	97.6	97.1	97.3	97.4	95.4	86	87.5	87.1	85.3	105	99.5	106	104	103	106	102	104	105	99.2	98.3	104	97.5	106	97.6
CC(/C=C1\SC(=S)N(CC(=O)O)C1=O)=C\c1ccccc1 [epalrestat]	> 10	> 10	> 10	> 10	> 10	0	0	0	0	0	92.6	87.2	95.8	104	98.8	98.3	95.4	94.7	101	102	100	96.4	102	95.6	106	102	96.8	96.7	97.8	107	99.4	98.1	98.4	103	100
